# Measurements published in ChEMBL document CHEMBL3045167, “Synthesis and evaluation of antiinflammatory activity of substituted chalcone derivatives” (2010).
# The source made the active and inactive calls. The rule behind the calls is not given here.
# What was measured:
# Format in all cases: functional
# Mus musculus [1] = assay: Anti-inflammatory activity in Mus musculus Kunming (mouse) assessed as inhibition of xylene-induced ear edema at 200 mg/kg, po administered 24 hr prior to xylene challenge measured at 24 hr post xylene challenge relative to control
# Mus musculus [2] = assay: Anti-inflammatory activity in Mus musculus Kunming (mouse) assessed as inhibition of xylene-induced ear edema at 100 mg/kg, po administered 2 hr prior to xylene challenge measured at 2 hr post xylene challenge relative to control
# Mus musculus [3] = assay: Anti-inflammatory activity in Mus musculus Kunming (mouse) assessed as inhibition of xylene-induced ear edema at 200 mg/kg, po administered 0.5 hr prior to xylene challenge measured at 0.5 hr post xylene challenge relative to control
# Mus musculus [4] = assay: Anti-inflammatory activity in Mus musculus Kunming (mouse) assessed as inhibition of xylene-induced ear edema at 200 mg/kg, po administered 3 hr prior to xylene challenge measured at 3 hr post xylene challenge relative to control
# Mus musculus [5] = assay: Anti-inflammatory activity in Mus musculus Kunming (mouse) assessed as inhibition of xylene-induced ear edema at 50 mg/kg, po administered 2 hr prior to xylene challenge measured at 2 hr post xylene challenge relative to control
# Mus musculus [6] = assay: Anti-inflammatory activity in Mus musculus Kunming (mouse) assessed as inhibition of xylene-induced ear edema at 200 mg/kg, po administered 4 hr prior to xylene challenge measured at 4 hr post xylene challenge relative to control
# Mus musculus [7] = assay: Anti-inflammatory activity in Mus musculus Kunming (mouse) assessed as inhibition of xylene-induced ear edema at 200 mg/kg, po administered 2 hr prior to xylene challenge measured at 2 hr post xylene challenge relative to control
# Mus musculus [8] = assay: Anti-inflammatory activity in Mus musculus Kunming (mouse) assessed as inhibition of xylene-induced ear edema at 200 mg/kg, po administered 1 hr prior to xylene challenge measured at 1 hr post xylene challenge relative to control
smiles,measurement,setting,value
CN(C)c1ccc(/C=C/C(=O)c2ccc(O)cc2O)cc1,inhibition in vivo at 200 mg/kg,Mus musculus [1],21.2%
same,inhibition in vivo at 100 mg/kg,Mus musculus [2],32.9%
same,inhibition in vivo at 200 mg/kg,Mus musculus [3],41.7%
same,inhibition in vivo at 200 mg/kg,Mus musculus [4],27.5%
same,inhibition in vivo at 50 mg/kg,Mus musculus [5],15.1%
same,inhibition in vivo at 200 mg/kg,Mus musculus [6],25.3%
same,inhibition in vivo at 200 mg/kg,Mus musculus [7],62.5%
same,inhibition in vivo at 200 mg/kg,Mus musculus [8],45.8%
O=C(/C=C/c1ccccc1[N+](=O)[O-])c1ccc(O)cc1O,inhibition in vivo at 200 mg/kg,Mus musculus [7],20.2%
CN(C)c1ccc(/C=C/C(=O)c2ccc(O)cc2)cc1,inhibition in vivo at 200 mg/kg,Mus musculus [7],17.3%
Cc1ccc(/C=C/C(=O)c2ccc(O)cc2O)cc1,inhibition,Mus musculus [7],inactive
O=C(/C=C/c1ccc2c(c1)OCO2)c1ccc(O)cc1O,inhibition in vivo at 200 mg/kg,Mus musculus [7],22%
"O=C(/C=C/c1ccc(O)cc1)c1ccc(O)cc1 [4,4'-DIHYDROXYCHALCONE]",inhibition in vivo at 200 mg/kg,Mus musculus [7],5.42%
O=C(/C=C/c1ccc(O)c(O)c1)c1ccc(O)cc1O [BUTEIN],inhibition in vivo at 200 mg/kg,Mus musculus [7],14.4%
COc1cc(/C=C/C(=O)c2ccc(O)cc2O)ccc1O [HOMOBUTEIN],inhibition in vivo at 200 mg/kg,Mus musculus [7],25.2%
COc1cc(/C=C/C(=O)c2ccc(O)cc2)ccc1O,inhibition in vivo at 200 mg/kg,Mus musculus [7],7.83%
O=C(/C=C/c1cccc([N+](=O)[O-])c1)c1ccc(O)cc1O,inhibition in vivo at 200 mg/kg,Mus musculus [7],30%
O=C(/C=C/c1ccc(Cl)cc1)c1ccc(O)cc1O,inhibition in vivo at 200 mg/kg,Mus musculus [1],21.5%
same,inhibition in vivo at 100 mg/kg,Mus musculus [2],49%
same,inhibition in vivo at 200 mg/kg,Mus musculus [3],30.2%
same,inhibition in vivo at 200 mg/kg,Mus musculus [4],33.6%
same,inhibition in vivo at 50 mg/kg,Mus musculus [5],18.6%
same,inhibition in vivo at 200 mg/kg,Mus musculus [6],32.3%
same,inhibition in vivo at 200 mg/kg,Mus musculus [7],68.2%
same,inhibition in vivo at 200 mg/kg,Mus musculus [8],32.5%
CC(C)Cc1ccc(C(C)C(=O)O)cc1 (stereo unspecified) [IBUPROFEN],inhibition in vivo at 200 mg/kg,Mus musculus [1],20.6%
same,inhibition in vivo at 100 mg/kg,Mus musculus [2],33%
same,inhibition in vivo at 200 mg/kg,Mus musculus [3],32.5%
same,inhibition in vivo at 200 mg/kg,Mus musculus [4],34.5%
same,inhibition in vivo at 50 mg/kg,Mus musculus [5],19.8%
same,inhibition in vivo at 200 mg/kg,Mus musculus [6],30.1%
same,inhibition in vivo at 200 mg/kg,Mus musculus [7],53.5%
same,inhibition in vivo at 200 mg/kg,Mus musculus [8],41.6%
O=C(/C=C/c1ccc(Cl)cc1Cl)c1ccc(O)cc1O,inhibition in vivo at 200 mg/kg,Mus musculus [7],26%
O=C(/C=C/c1ccc(O)cc1)c1ccc(O)cc1O [ISOLIQUIRITIGENIN],inhibition in vivo at 200 mg/kg,Mus musculus [7],14.9%
COc1ccc(/C=C/C(=O)c2ccc(O)cc2O)cc1,inhibition in vivo at 200 mg/kg,Mus musculus [7],51.4%
